Results published in US11472811B2, “Pyrazolotriazolopyrimidine derivatives as A2A receptor antagonist” (BEIGENE, LTD., priority 2018, dated 2022).
Like-named read-outs stand apart in the source and are kept apart here.

Assays:
[1] = Mouse BBB assay; format: in vivo; details: oral 10 mg/kg; for Brain (ng · g^−1): at 1 h
Procedure: Mice were acclimated for 1 week prior to use at 18-30 g body weight. Fasted mice were dosed orally at 10 mg/kg dose. At 1, 2 and 4 hours postdose, plasma samples from cardiac blood collected in tubes containing K2EDTA as the anticoagulant, and excised cerebral hemispheres were immediately frozen and stored at −80° C. until bioanalysis. Total concentrations of the compound were determined by LC-MS/MS. Brain homogenate concentrations were converted to brain concentrations for the calculations of brain-to-plasma ratios.

[2] = target: human adenosine A2A receptor (A2AR) (Homo sapiens (Human), UniProt P29274); test: Adenosine receptor binding assay, A2A (radioligand competitive binding); details: membrane homogenates from HEK293 cells transfected with A2AR, 6 nM [3H]CGS21680
human adenosine A2A receptor (A2AR), sequence (P29274 whole entry): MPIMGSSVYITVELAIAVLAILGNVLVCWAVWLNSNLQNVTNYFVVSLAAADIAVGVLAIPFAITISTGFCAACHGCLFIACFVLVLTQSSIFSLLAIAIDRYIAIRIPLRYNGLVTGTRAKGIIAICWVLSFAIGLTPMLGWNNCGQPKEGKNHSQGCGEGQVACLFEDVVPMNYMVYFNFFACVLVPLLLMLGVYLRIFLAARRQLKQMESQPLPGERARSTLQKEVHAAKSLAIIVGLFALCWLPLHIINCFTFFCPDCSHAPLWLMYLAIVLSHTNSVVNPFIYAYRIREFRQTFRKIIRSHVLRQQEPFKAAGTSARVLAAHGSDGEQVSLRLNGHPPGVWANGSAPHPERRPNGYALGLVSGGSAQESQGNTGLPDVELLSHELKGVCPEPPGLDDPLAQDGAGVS
Procedure: (§1) Binding affinity of test compounds to four human adenosine receptors, A1, A2A, A2B and A3 was determined in radioligand competitive binding assay (conducted by Cerep, France) using following protocols. For A1 receptor (A1R), membrane homogenates from CHO cells transfected with A1R were incubated for 60 min at 22° C. with 1 nM [3H]DPCPX in the absence or presence of the test compound in a buffer containing 50 mM Tris-HCl (pH 7.4), 5 mM MgCl2, 1 mM EDTA/Tris and 2 UI/mL ADA. For A2AR, membrane homogenates from HEK293 cells transfected with A2AR were incubated for 120 min at 22° C. with 6 nM [3H]CGS21680 in the absence or presence of the test compound in a buffer containing 50 mM Tris-HCl (pH 7.4), 10 mM MgCl2, and 2 UI/mL ADA. For A2B receptor (A2BR), membrane homogenates from HEK293 cells transfected with A2BR were incubated for 60 min at 22° C. with 5 nM [3H]CPX in the absence or presence of the test compound in a buffer containing 10 mM Hepes/Tris (pH 7), 1 mM MgCl2, and 1 mM EDTA. For A3 receptor (A3R), membrane homogenates from HEK293 cells transfected with A3R were incubated for 120 min at 22° C. with 0.15 nM [125I] AB-MECA in the absence or presence of the test compound in a buffer containing 50 mM Tris-HCl (pH 7.4), 5 mM MgCl2, 1 mM EDTA and 2 UI/mL ADA. Nonspecific binding was determined in the presence of unlabeled 1 μM DPCPX, 10 μM NECA, 100 μM NECA, and 1 μM IB-MECA in A1R, A2AR, A2BR, A3R binding assays, respectively. Following incubation, the samples are rapidly filtered and washed with ice-cold 50 mM Tris-HCl. Then filters are dried and counted for radioactivity in a scintillation counter (Topcount, Packard) using a scintillation cocktail (Microscint 0, Packard). Duplicate experiments were performed for each assay. The results are expressed as a percent inhibition of control radioligand specific binding.

[3] = target: human adenosine A1 receptor (A1R) (Homo sapiens (Human), UniProt P30542); test: Adenosine receptor binding assay, A1 (radioligand competitive binding); details: membrane homogenates from CHO cells transfected with A1R, 1 nM [3H]DPCPX
human adenosine A1 receptor (A1R), sequence (P30542 whole entry): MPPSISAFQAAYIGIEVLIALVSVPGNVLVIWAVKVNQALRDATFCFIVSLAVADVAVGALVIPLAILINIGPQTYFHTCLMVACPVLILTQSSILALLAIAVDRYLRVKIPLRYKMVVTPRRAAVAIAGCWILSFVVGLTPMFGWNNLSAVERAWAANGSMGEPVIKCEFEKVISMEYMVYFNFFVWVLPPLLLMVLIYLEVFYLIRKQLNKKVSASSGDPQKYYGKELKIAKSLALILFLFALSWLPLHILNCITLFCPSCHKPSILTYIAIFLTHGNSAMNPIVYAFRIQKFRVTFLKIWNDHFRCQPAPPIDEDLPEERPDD
Procedure: as §1

[4] = target: human A2A receptor (A2AR) (Homo sapiens (Human), UniProt P29274); test: Luciferase reporter assay (HEK293-A2AR-luc2p/CRE/Hygro cells); format: cell-based; details: 3 nM CGS21680, 5 h incubation
human A2A receptor (A2AR), sequence (P29274 whole entry): as the sequence (P29274 whole entry) above
Outline: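 HEK293 cells stably expressing human A2AR and a CRE-luc2P reporter were seeded in 1% FBS with 1 U/mL adenosine deaminase. After 18 h they were stimulated 5 h with 3 nM CGS21680 plus compound (0.1–10000 nM), then luciferase luminescence was read. IC50 was taken from inhibition curves, with CGS21680 alone set as 100%.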

[5] = BLOQ: below limit of quantitation, Brain is 5 ng/g, read-out: Brain
[6] = limit of quantitation plasma 1 ng/ml, read-out: Plasma
[7] = BLOQ: below limit of quantitation, Brain is 5 ng/g

Compound | concentration at 1 h [1, 5] | concentration at 1 h [1, 6] | Ki [2] | Ki [3] | Brain (ng · g^−1) [1, 7] | IC50 [4]
COCCOc1ccc(N2CCN(CCn3ncc4c3nc(N)n3nc(-c5ccco5)nc43)CC2)cc1 [Preladenant, reference compound] | 258 ng/g | 197 ng/mL |  |  |  | 
C[C@](C(=O)N[C@@H]1CCC[C@@H]1O)(c1ccccc1)n1ncc2c1nc(N)n1nc(-c3ccco3)nc21 [Example 48B, (R)-2-(5-amino-2-(furan-2-yl)-7H-pyrazolo[4,3-e][1,2,4]triazolo[1,5-c]pyrimidin-7-yl)-N-((1R,2S)-2-hydroxycyclopentyl)-2-phenylpropanamide] | 8.69 ng/g | 56.3 ng/mL | 2.2 nM | 12 nM |  | 1.6 nM
C[C@](C(=O)N[C@H]1CC[C@@H](O)CC1)(c1ccccc1)n1ncc2c1nc(N)n1nc(-c3ccco3)nc21 [Example 76B, (R)-2-(5-amino-2-(furan-2-yl)-7H-pyrazolo[4,3-e][1,2,4]triazolo[1,5-c]pyrimidin-7-yl)-(cis)-N-(4-hydroxycyclohexyl)-2-phenylpropanamide] |  | 39.1 ng/mL | 1.6 nM | 150 nM | BLOQ | 2.2 nM
Nc1nc2c(cnn2[C@H](C(=O)NCC2(O)COC2)c2ccccc2)c2nc(-c3ccco3)nn12 [Example 82B] |  |  | 1.7 nM | 7.2 nM |  | 3.8 nM

Now from value to compound:

concentration at 1 h [1, 5] | concentration at 1 h [1, 6] | Ki [2] | Ki [3] | Brain (ng · g^−1) [1, 7] | IC50 [4] | Compound
 | 29.4 ng/mL | 1.6 nM | 540 nM | BLOQ | 3.9 nM | CC1(O)CCC(NC(=O)[C@@](C)(c2ccccc2)n2ncc3c2nc(N)n2nc(-c4ccco4)nc32)CC1 (stereo partly drawn) [Example 69B, (R)-2-(5-amino-2-(furan-2-yl)-7H-pyrazolo[4,3-e][1,2,4]triazolo[1,5-c]pyrimidin-7-yl)-(cis)-N-(4-hydroxy-4-methylcyclohexyl)-2-phenylpropanamide]
 | 177 ng/mL | 1.2 nM | 180 nM | BLOQ | 2.3 nM | C[C@](C(=O)NCC1(O)COC1)(c1ccccc1)n1ncc2c1nc(N)n1nc(-c3ccco3)nc21 [Example 31B, (R)-2-(5-amino-2-(furan-2-yl)-7H-pyrazolo[4,3-e][1,2,4]triazolo[1,5-c]pyrimidin-7-yl)-N-((3-hydroxyoxetan-3-yl)methyl)-2-phenylpropanamide]
